Test results taken from article PMC8318231, “Rate-of-Kill (RoK) assays to triage large compound sets for Chagas disease drug discovery: Application to GSK Chagas Box” (PLoS Neglected Tropical Diseases, 2021).

Tested on: T. cruzi intracellular amastigotes in H9c2 cells
Assay: Rate-of-Kill (RoK) high-content imaging assay, amastigotes per cell (AM/CELL) and curve descriptors
Assay type: cell-based, Trypanosoma cruzi
Design: key to ME_24h / ME_48h / ME_72h: % reduction in parasite burden (cidal response); t50pct_MCC50 / t50pct_Cmax: unit not given here
Conditions: for ME_24h: 24h; for ME_48h: 48h; for ME_72h: 72h; for t50%_Cmax / tlag_Cmax / t50pct_Cmax: at Cmax; for ME_24h (%): maximum effect at 24 h; for ME_24h (%) / ME_48h (%) / ME_72h (%): RoK assay; for ME_48h (%): maximum effect at 48 h; for ME_72h (%): maximum effect at 72 h; for ME 24h (maximum effect at 24 hours, intracellular amastigotes): maximum percentage of parasite burden reduction reached by any concentration
Method in brief: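 Readouts at each time point are amastigotes per cell and host nuclei count (cytotoxicity), from DRAQ5 high-content imaging. Infection: trypomastigotes on H9c2 at MOI 8 for 18 h. Dosing was 5 μM single point or 11 points, 1/3 steps from 50 μM. Effect scaled between 4 h infected and uninfected controls.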

SMILES	ME_24h (figure 5)	ME_48h (figure 5)	ME_72h (figure 5)	MCC50 (RoK curve descriptor) [µM]	MCCE (RoK curve descriptor) [µM]	AM/CELL NORM (Time 4, sheet figure 4 A)	tlag_Cmax [h]	t50pct_Cmax (figure 5)	tlag_Cmax (figure 5)	t50%_MCC50 (at MCC50) [h]	t50pct_MCC50 (at MCC50, figure 5)	tlag_MCC50 (at MCC50, figure 5)	MCCE (figure 5)	ME_24h (%)	ME_48h (%)	ME_72h (%)	ME 24h (maximum effect at 24 hours, intracellular amastigotes) [%]	AM/CELL NORM (Time 24, sheet figure 4 A)	AM/CELL NORM (Time 48, sheet figure 4 A)	AM/CELL NORM (Time 72, sheet figure 4 A)	further results
CCN(C)Cc1ccc(N2CCC(NS(=O)(=O)c3ccc4c(c3)CCO4)CC2)nc1 [TCMDC-143244]	-27.3777	29.749	55.3707	5.6	5.6	16.0918	24.0	72	24	72.0	72	48	5.556	-27.4	29.8	55.4	-2.6188				AM/CELL NORM (Time 24, figure 4 A): -52.1365; AM/CELL NORM (Time 48, figure 4 A): 10.0549; AM/CELL NORM (Time 72, figure 4 A): 24.5494; t50%_Cmax: 72.0 h; tlag_MCC50 (at MCC50): 24.0 h; MCC50 (figure 5, in µM): 27.7778
COc1ccc(S(=O)(=O)NC(C)C)cc1Nc1ncc(-c2cccc(F)c2)cn1 [TCMDC-143248]	-143.559	-20.0816	54.2238	50.0	0.6	-6.932	24.0	72	24	72.0	72	48	0.6173	-143.6	-20.1	54.2	-47.9652	-311.598	-64.9455	9.4251	t50%_Cmax: 72.0 h; tlag_MCC50 (at MCC50): 24.0 h; MCC50 (figure 5): 50 µM
O=C(NCCc1ccccc1Cl)c1cccn1-c1cccnc1 [TCMDC-143253]	-106.211	-219.247	24.5352		0.6	-14.0913	48.0	72	48		72	72	0.6173	-106.2	-219.3	24.5	-106.211	-106.211	-401.6	-120.948	MCC50 (figure 5): 50 µM
COc1ccc(S(=O)(=O)Nc2ccccc2OC)cc1NC(=O)CCCc1c[nH]c2ccccc12 [TCMDC-143256]	-69.6887	10.9628	75.3535	5.6	1.9	3.221	24.0	72	24	72.0	72	24	1.852	-69.7	11.0	75.4	-34.0663	-34.0663	12.7734	63.1728	t50%_Cmax: 72.0 h; tlag_MCC50 (at MCC50): 24.0 h; MCC50 (figure 5, in µM): 5.556
COc1ccc2c(Cl)c(C(=O)N3CCC3)sc2c1Cl [TCMDC-143262]	-33.6637	-143.465	-114.282		16.7	16.6129	48.0	72	48		72	72	16.6667	-33.7	-143.5	-114.3	-33.6637	-33.6637	-143.465	-114.282	MCC50 (figure 5): 50 µM
CCN(CC)S(=O)(=O)c1ccc(C(=O)Nc2cc(C)nn2-c2nc(C)c(C)c(=O)[nH]2)cc1 [TCMDC-143273]	-21.3076	17.6407	21.9061	1.9	0.6	-1.286	24.0	72	24	72.0	72	38	0.6173	-21.3	17.6	21.9	4.663	-40.8598	1.208	53.2799	t50%_Cmax: 72.0 h; tlag_MCC50 (at MCC50): 4.0 h; MCC50 (figure 5, in µM): 25.9259
COc1ccc(C(C)(C)C)cc1S(=O)(=O)n1ccnc1 [TCMDC-143275]	-36.0217	-75.3113	19.8776		0.2	7.308	48.0	72	48		72	72	0.2058	-36.0	-75.3	19.9	-36.0217	-56.5644	-75.3113	-31.1405	MCC50 (figure 5): 50 µM
CCCn1c(NC(=O)Cc2ccc(Cl)cc2)nc2ccccc21 [TCMDC-143279]	-55.8269	-85.7556	-269.589	5.6	9.3	0.2091	38.0	72	38	48.0	60	48	9.259	-55.8	-85.8	-269.6	3.26	-159.496	-347.093	-621.538	tlag_MCC50 (at MCC50): 24.0 h; MCC50 (figure 5, in µM): 27.7778
CCC(=O)Nc1ccc(C(=O)Nc2ccccc2-c2ccccc2)cc1 [TCMDC-143286]	59.883	81.1358	89.3246	1.9	0.6	27.4861	4.0	24	4	48.0	48	4	0.6173	59.9	81.1	89.3	59.883	59.883	81.1358	89.3246	t50%_Cmax: 24.0 h; tlag_MCC50 (at MCC50): 4.0 h; MCC50 (figure 5, in µM): 1.852
Cc1cccnc1CN1CCN(CCCOc2ccc(-c3ccc(C(N)=O)cc3)cc2)CC1 [TCMDC-143291]	-149.164	-418.951	-403.993		16.7	9.834	48.0	72	48		72	72	16.6667	-149.2	-419.0	-404.0	-41.6178	-41.6178	-122.335	-107.466	MCC50 (figure 5): 50 µM
COc1ccc(C(C)N(C)c2ncc3c(N)nc(N)nc3n2)cc1F (stereo not drawn) [TCMDC-143298]	43.2682	65.4547	72.4604	1.4	0.16	12.1557	4.0	64	4	56.0	56	4	0.16	43.3	65.5	72.5	45.8485	34.3534	59.1852	72.1771	MCC and MCCE values (in words): low MCC and MCCE values; ME (maximum effect) in RoK assay (in words): high ME value; tlag times: 4 h; t50%_Cmax: 64.0 h; tlag_MCC50 (at MCC50): 4.0 h; MCC50 (figure 5): 1.44 µM
O=C(NCc1ccncc1)c1ccccc1N1CCCN(C(=O)Cc2ccc(F)c(F)c2)CC1.O=C(O)C(F)(F)F.O=C(O)C(F)(F)F [TCMDC-143300]	-279.048	-72.5657	30.5548		0.07	-9.816	24.0	72	24		72	72	0.06859	-279.1	-72.6	30.6	-279.048	-279.048	-94.5412	9.95	MCC50 (figure 5): 50 µM
